System: INS-1E rat beta cells, no cytokines, CellTiter-Glo ATP, 48 h
Assay: cytokine-free beta-cell viability effect – INS-1E rat cells, ATP luminescence, cherry pick, counter-screen for beta-cell apoptosis protection project, dose response (AID 463229)

Compound | AC50 [µM]
Cn1cccc1C1C=C(c2ccc(C(C)(C)C)cc2)Nc2ncnn21 (stereo not given) | 3.2
COc1ccc(C(=O)/C(C#N)=N/Nc2ccc([N+](=O)[O-])cc2)cc1 | 2.15
CN1/C(=C\P(=O)(N(C)C)N(C)C)C(C)(C)c2ccccc21 | 4.86
[O-][n+]1onc2c1CCc1c-2nn(-c2ccccc2Cl)[n+]1[O-] | 7.37
Nc1nc2ccccc2n1/N=C/c1ccc([N+](=O)[O-])s1 | 7.19
CCOC(=O)N1CCN(Cc2cc(Cl)c3cccnc3c2O)CC1 | 13.2
COc1ccc(NC(=O)/C(Cl)=C(/Cl)S(=O)Cc2ccccc2)cn1 (stereo not given) | 2.05
CCN(CC)c1ccc(/C=N/NC(=O)c2c(Cl)cnn2C)c(O)c1 | 1.5
CN1/C(=C\C(=O)CN2C(=O)NC3(CCCCCC3)C2=O)C(C)(C)c2ccccc21 | 7.99
Cc1ccc(C(C)C)c(OCc2ccc(C(=O)N/N=C/c3cccc(O)c3O)cc2)c1 | 7.27
CCOC(=O)c1ccc(-[n+]2c(-c3ccccc3)cc(-c3ccccc3)cc2-c2ccccc2)cc1 | 2.27
COc1cccc(/C=N/NC(=O)c2cc(-c3ccccn3)nc3ccccc23)c1O | 7.61
Cc1oc2c(c1C(=O)N1CCC(C)CC1)C(=O)c1ccccc1C2=O | 10.8
Oc1ccc(-c2n[nH]c(C(F)(F)F)c2-c2ccccc2)c(O)c1 | 5.86
Cn1nnnc1N=N/C(=N/Nc1ccccc1)c1ccccc1 | 4.36
CCOc1ccc(OCc2ccc(C(=O)NN=Cc3ccc[nH]3)cc2)cc1 | 0.739
COc1ccc(-c2nn(-c3ccccc3)cc2/C=N/Nc2ccc3ccccc3n2)cc1OC | 7.19
COc1cc(OC)nc(-n2ncc(Br)c(Br)c2=O)n1 | 6.66
O=[N+]([O-])c1cc(CN2CCN(c3ccccc3)CC2)c(O)c2ncccc12 | 3.1
Cc1ccc(S(=O)(=O)NCc2ccncc2)c(C)c1C | 3.83
Cc1ccc(S(=O)(=O)Nc2ccc(O)c3ccccc23)c(C)c1 | 13.7
O=C(c1ccc(-c2ccc(Cl)cc2)o1)N1CCN(c2ccc([N+](=O)[O-])cc2Cl)CC1 | 4.92
Cn1nc(C(C)(C)C)cc1C(=O)NCc1ccc(N2CCCC2=O)cc1 | 5.65
CC(C)(C)c1cc[n+](C2=C([O-])c3ccccc3C(=O)/C2=N\S(=O)(=O)c2cccs2)cc1 | 7.44
Cc1oc2c(c1C(=O)N1CCOCC1)C(=O)c1ccccc1C2=O | 8.12
CCn1c(-c2ccc(N(C)C)cc2)nc2ccccc21 | 3.75
COc1ccc([N+](=O)[O-])c(S(=O)(=O)c2ccc(Cl)cc2)n1 | 7.61

Compound | AC50 [µM]
CCCCC(=O)NC(c1ccccc1)c1ccc2cccnc2c1O (stereo not given) | 2.24
CCN1c2ccccc2NC2N=C(OC)C(c3ccccc3)C21 (stereo not given) | 13.1
CCOc1ccc(C(Nc2cccnc2)c2cc(Cl)c3cccnc3c2O)cc1 (stereo not given) | 7.33
Cc1ccc(NS(=O)(=O)c2ccc(NC(=O)CN(c3cc([N+](=O)[O-])ccc3C)S(C)(=O)=O)cc2)c(C)c1 | 1.86
Cc1ccc(S(=O)(=O)Nc2cc(Cl)c(O)c3ncccc23)cc1 | 4.38
CCCCCCCC[n+]1cccc2c3ccccc3ccc21 | 0.273
CCc1c(C)sc2nc(C(C)C)nc(SCC(=O)N3CCc4ccccc4C3)c12 | 2.08
COc1cc(CN2CCN(c3cc(C)ccc3C)CC2)ccc1O | 7.21
N=c1c2c(-c3ccccc3)c(-c3ccccc3)n(Cc3ccco3)c2ncn1Cc1ccccc1 | 7.01
COc1ccc(Cn2c(SCc3ccccc3C)nc3cc(OC)c(OC)cc3c2=N)cc1 | 7.93
O=S1(=O)C=C(Sc2nnc(-c3ccccc3)o2)c2ccccc21 | 7.96
COc1ccc(-c2nc3ccc(C)cn3c2NCc2ccccc2)cc1SC1CCCCC1 | 2.34
COc1cc(NC(=O)c2[nH]cnc2C(N)=O)cc(C(=O)Nc2cccc(C(F)(F)F)c2)c1 | 5.21
Cc1ccc(C(=O)C[n+]2cc(-c3ccc(C)cc3)n3c2CCCCC3)cc1 | 1.4
CCCCCn1c(=O)c(C(=O)NCc2ccccc2Cl)c(O)c2ccccc21 | 6.84
COc1ccc(/C=N/Nc2cc(C)nc(-n3nc(C)cc3C)n2)cc1 | 16.1
C/C(=N\NC(=O)c1nnn(-c2nonc2N)c1-c1ccccc1)c1ccccc1O | 2.17
O=[N+]([O-])c1ccc(Sc2cccc3cccnc23)c([N+](=O)[O-])c1 | 14.5
CCCCNc1c(-c2ccc(-c3cccc(Cl)c3)cc2)nc2ccccn12 | 5.83
Nc1nonc1-n1nnc(C(=O)N/N=C/c2cc(Br)ccc2O)c1CNc1ccccc1 | 8.29
Cc1c(/C=N/Nc2nc3ccccc3[nH]2)c2ccccc2n1C | 6.36
O=C(N/N=C/c1cnc(N2CCCCC2)s1)c1ccc(C(F)(F)F)cc1 | 6.66
C/C(=N\NC(=O)c1ccc(NS(=O)(=O)c2cccs2)cc1)c1ccccn1 | 13.3
O=C1C=C(c2cccs2)C[C@H](c2ccccc2)[C@H]1n1nnc([N+](=O)[O-])n1 | 12.8
C/C(=N\Nc1ccc2nncn2n1)c1ccccn1 | 2.72
Oc1ccc(COCc2ccccc2)c2cccnc12 | 4.28
O=C(N/N=C/c1ccccc1O)c1cccc(C(F)(F)F)c1 | 7.18

Compound | AC50 [µM]
COc1ccc(NS(=O)(=O)c2cccc(NC(=O)c3ccc(S(=O)(=O)N4CCCCCC4)cc3)c2)cc1 | 4.24
COc1cccc(/C=N/Nc2ccnc(=O)[nH]2)c1O | 22.7
O=C(OCCOc1cccc(Cl)c1)c1cc(S(=O)(=O)N2CCCCC2)ccc1N1CCOCC1 | 7.78
O=[N+]([O-])c1ccc(-c2nc3ccc([N+](=O)[O-])cc3[nH]2)cc1 | 6.93
O=C(c1ccco1)N1N=C(c2ccc(Br)cc2)CC1c1ccco1 (stereo not given) | 24.2
c1ccc(-c2nc(N3CCCCCC3)c3ccccc3n2)nc1 | 6.8
Nc1nc(F)nc2c1ncn2[C@@H]1O[C@H](CO)[C@@H](O)[C@H]1O | 0.699
Fc1ccccc1N=C1NN=C(c2ccccc2)CS1 | 4.95
CNC1=C(N(C(C)=O)c2ccc(Br)cc2)C(=O)c2ccccc2C1=O | 0.943
COc1ccc(-n2cc(-c3ccc(OC(F)F)cc3)[n+]3c2CCCCC3)cc1 | 2.07
Cc1cc(-c2ccccc2)cc(-c2ccccc2)[n+]1CCc1ccccc1 | < 0.195
C=CCSc1nc2ccccc2n1C(=O)/C=C/c1ccc(OC)c(OC)c1 | 11
COc1ccc(-c2c[n+](CC(=O)OC3CC(C)CCC3C(C)C)c3n2CCC3)cc1 (stereo not given) | 1.87
COC(=O)C1=C(C)N(Cc2ccccc2)C(=NCc2cccc(Cl)c2)N[C@H]1c1cccc(F)c1 | 6.75
Cc1occc1C(=O)N/N=C/c1c(O)ccc2ccccc12 | 7.95
CCC(=O)NC(c1cccs1)c1ccc2cccnc2c1O (stereo not given) | 3.37
Cc1ccc(NC2=C/C(=N\S(=O)(=O)c3cccs3)c3ccccc3C2=O)c(C)c1 | 1.88
CC(C)(C)Nc1nc(-c2ccccn2)nc2ccccc12 | 6.87
CC(=O)NC(c1cccs1)c1cc(F)c2cccnc2c1O (stereo not given) | 6.05
c1cnc(N2CCN(Cc3c[nH]c4ccccc34)CC2)nc1 | 4.83
O=C(Cc1cccs1)N/N=C\c1ccc([N+](=O)[O-])s1 | 7.04
CC(=O)c1c(C)[nH]c(C(=O)OCC(=O)Nc2ccc(Cl)cc2[N+](=O)[O-])c1C | 2.82
O=C1C(=O)c2ccccc2-c2ccccc21 | 1.01
O=C(Nc1ccc2nc3n(c(=O)c2c1)CCCCC3)c1c(F)ccc([N+](=O)[O-])c1F | 6.65
O=S(=O)(c1cccs1)N1CCN(CC(O)COc2cc(Cl)ccc2Cl)CC1 (stereo not given) | 13.3
N=c1c2ccccc2nc2n1CCCCCCCCCCC2 | 13.9

Source: PubChem BioAssay AID463229 (Broad Institute, 2010)
